Experimental findings from US20090111801A1, “SUBSTITUTED PYRAZINONE DERIVATIVES FOR USE AS A MEDICINE” (Janssen Pharmaceutica N.V., priority 2006, published 2009) are described below.

Experiment [1] has as its target T1, hα2A receptor (Homo sapiens, UniProt P08913).
T1 construct: expressed in transfected cells; host or cells: CHO cells, stably transfected; membrane preparation
T1 sequence (P08913 1-465): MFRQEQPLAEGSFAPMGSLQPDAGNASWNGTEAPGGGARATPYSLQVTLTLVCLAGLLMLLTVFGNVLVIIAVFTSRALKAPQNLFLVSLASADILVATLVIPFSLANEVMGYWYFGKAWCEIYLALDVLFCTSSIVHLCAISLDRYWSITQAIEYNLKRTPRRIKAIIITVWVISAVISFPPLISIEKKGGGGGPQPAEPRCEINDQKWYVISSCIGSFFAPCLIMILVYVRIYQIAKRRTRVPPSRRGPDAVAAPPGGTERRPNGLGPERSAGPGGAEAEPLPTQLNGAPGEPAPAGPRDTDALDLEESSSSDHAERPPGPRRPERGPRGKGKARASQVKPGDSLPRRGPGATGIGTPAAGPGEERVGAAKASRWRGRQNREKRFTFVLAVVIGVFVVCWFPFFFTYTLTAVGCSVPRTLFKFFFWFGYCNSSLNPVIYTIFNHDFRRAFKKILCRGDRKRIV
Description: Radioligand binding experiment for α2A-adrenoceptor ([3H]raulwolscine, CHO cell membranes). Particulars: [3H]raulwolscine binding; for IC50: read-out: h-α2A pIC50 (converted).

Experiment [2] deals with T2, 5HT-Transporter (Homo sapiens, UniProt P31645).
T2 construct: Human platelet membranes (Oceanix Biosciences Corporation, Hanover, Md., USA) were thawed; tissue Oceanix Biosciences Corporation, Hanover, Md., USA; host or cells: human platelet membranes
T2 sequence (P31645 whole entry): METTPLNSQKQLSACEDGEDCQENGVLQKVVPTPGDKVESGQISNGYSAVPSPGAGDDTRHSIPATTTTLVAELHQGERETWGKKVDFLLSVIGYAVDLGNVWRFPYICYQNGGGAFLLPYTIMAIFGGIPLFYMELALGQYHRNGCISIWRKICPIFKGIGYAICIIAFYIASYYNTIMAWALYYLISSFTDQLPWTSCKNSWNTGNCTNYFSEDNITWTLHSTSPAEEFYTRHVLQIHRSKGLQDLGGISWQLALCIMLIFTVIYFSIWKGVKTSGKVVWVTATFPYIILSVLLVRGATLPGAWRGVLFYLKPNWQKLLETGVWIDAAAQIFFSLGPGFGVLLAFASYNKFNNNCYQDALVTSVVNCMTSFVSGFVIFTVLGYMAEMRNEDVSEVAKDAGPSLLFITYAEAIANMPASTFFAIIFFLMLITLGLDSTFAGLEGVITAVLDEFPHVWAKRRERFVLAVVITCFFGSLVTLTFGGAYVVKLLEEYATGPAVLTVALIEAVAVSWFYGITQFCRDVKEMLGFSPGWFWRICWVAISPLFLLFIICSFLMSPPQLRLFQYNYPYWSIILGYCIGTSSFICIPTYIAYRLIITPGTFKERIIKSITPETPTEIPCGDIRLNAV
Description: Binding experiment for the 5HT-transporter ([3H]paroxetine, human platelet membranes). The conditions noted are these: [3H]paroxetine 0.5 nM; for IC50: read-out: h-5HTT pIC50 (converted). The procedure, abridged: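 Filter-bound radioactivity from human platelet membranes incubated with [3H]paroxetine and test compound (buffer Tris-HCl 50 mM, 120 mM NaCl, 5 mM KCl) was counted.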

The target in experiment [3] is T3, hα2C receptor (Homo sapiens, UniProt P18825).
T3 construct: expressed in transfected cells; host or cells: CHO cells, stably transfected; membrane preparation
T3 sequence (P18825 1-462): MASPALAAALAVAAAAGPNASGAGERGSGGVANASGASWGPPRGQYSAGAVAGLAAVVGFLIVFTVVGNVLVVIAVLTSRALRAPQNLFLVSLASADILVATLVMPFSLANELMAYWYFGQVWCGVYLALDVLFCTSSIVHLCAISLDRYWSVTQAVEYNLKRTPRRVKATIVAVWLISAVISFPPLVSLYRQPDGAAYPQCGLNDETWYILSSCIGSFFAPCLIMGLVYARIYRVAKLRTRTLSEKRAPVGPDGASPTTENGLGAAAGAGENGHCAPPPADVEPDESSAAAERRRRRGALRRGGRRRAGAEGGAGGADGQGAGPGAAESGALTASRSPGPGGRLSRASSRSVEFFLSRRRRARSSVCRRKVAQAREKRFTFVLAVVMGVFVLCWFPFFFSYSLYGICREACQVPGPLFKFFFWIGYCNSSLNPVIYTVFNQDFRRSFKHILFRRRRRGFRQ
The experiment is described as follows: Radioligand binding experiment for α2C-adrenoceptor ([3H]raulwolscine, CHO cell membranes). The conditions noted are these: [3H]raulwolscine binding; for IC50: read-out: h-α2C pIC50 (converted).

Regarding `C/C(=C\c1ccccc1)CN1CCC(Nc2nccn(CC(=O)NCCN(C)C)c2=O)CC1` [1-102], the figures for the IC50 in experiment [1], in experiment [2] and in experiment [3] were 31.6 nM, 3160 nM and 2 nM, respectively.
In the case of `C/C(=C\c1ccccc1)CN1CCC(Nc2nccn(Cc3cccc(NCCN(C)C)c3)c2=O)CC1` [1-103], the values for the IC50 in experiment [1], in experiment [2] and in experiment [3] were 25.1 nM, 200 nM and 3.16 nM, respectively.
`C/C(=C\c1ccccc1)CN1CCC(Nc2nccn(Cc3ccc(NCCN(C)C)cc3)c2=O)CC1` [1-104]: the IC50 in experiment [1] is 12.6 nM; in experiment [2], 200 nM; in experiment [3], 2.51 nM.
The like results for `C/C(=C\c1ccccc1)CN1CCC(Nc2nccn(-c3ccc(CNCCN(C)C)cc3)c2=O)CC1` [1-105] were, in that order, 39.8 nM, 631 nM and 5.01 nM.
Turning to `C/C(=C\c1ccccc1)CN1CCC(Nc2nccn(-c3cccc(CNCCN(C)C)c3)c2=O)CC1` [1-106], in experiment [1], the “h-α2A pIC50” value was found to be 7.9. Further, the “h-5HTT pIC50” value in experiment [2] is given as 6.1. In addition, the “h-α2C pIC50” value in experiment [3] came to 8.8.
As to `C/C(=C\c1ccccc1)CN1CCC(Nc2nccn(CC(=O)NCCCN(C)C)c2=O)CC1` [1-107], the IC50 in experiment [1] is 31.6 nM; in experiment [2], 2000 nM; in experiment [3], 1.58 nM.
The like results for `C/C(=C\c1ccccc1)CN1CCC(Nc2nccn(CC(=O)N(C)CCN(C)C)c2=O)CC1` [1-108] were, in that order, 50.1 nM, 6310 nM and 1.58 nM.
Consider `C/C(=C\c1ccccc1)CN1CCC(Nc2nccn(-c3cccc(CN(C)CCN(C)C)c3)c2=O)CC1` [1-109], for which the “h-α2A pIC50” value in experiment [1] worked out at 8.2. For the same molecule, the “h-5HTT pIC50” value in experiment [2] was 6.5. In experiment [3], the “h-α2C pIC50” value is listed as 8.6.
As for `C/C(=C\c1ccccc1)CN1CCC(Nc2nccn(CC(=O)N(C)CCN(C)Cc3ccccc3)c2=O)CC1` [1-111], the IC50 in experiment [1] is 50.1 nM; in experiment [2], 3980 nM; in experiment [3], 0.794 nM.
The like results for `C/C(=C\c1ccccc1)CN1CCC(Nc2nccn(-c3ccc(C(=O)N(CCN(C)C)Cc4ccccc4)cc3)c2=O)CC1` [1-112] were, in that order, 39.8 nM, 200 nM and 3.16 nM.
Consider `C/C(=C\c1ccccc1)CN1CCC(Nc2nccn(CC(=O)N(CCN(C)C)Cc3ccc(F)cc3)c2=O)CC1` [1-113], for which the IC50 is 126 nM in experiment [1], 7940 nM in experiment [2] and 3.98 nM in experiment [3].
Turning to `CC(=O)NCCNC(=O)Cn1ccnc(NC2CCN(C/C(C)=C/c3ccccc3)CC2)c1=O` [1-114], the results for the IC50 in experiment [1], in experiment [2] and in experiment [3] were 200 nM, 3980 nM and 12.6 nM, respectively.
The corresponding values for `CCCNC(=O)NCc1ccc(Cn2ccnc(NC3CCN(C/C(C)=C/c4ccccc4)CC3)c2=O)cc1` [1-115] are 251 nM, 794 nM and 79.4 nM.
Take `C/C(=C\c1ccccc1)CN1CCC(Nc2nccn(Cc3ccc(CNC(=O)NCCS)cc3)c2=O)CC1` [1-116]: the IC50 in experiment [1] was 200 nM; in experiment [2], 316 nM; in experiment [3] it was 126 nM.
For `CCN(CC)C(=O)NCc1ccc(-n2ccnc(NC3CCN(C/C(C)=C/c4ccccc4)CC3)c2=O)cc1` [1-117], the “h-α2A pIC50” value in experiment [1] was 6.7. The “h-5HTT pIC50” value in experiment [2] is on record as 6.3. Moreover, in experiment [3], the “h-α2C pIC50” value came out at 8.3.
As to `C/C(=C\c1ccccc1)CN1CCC(Nc2nccn(Cc3ccc(CNC(=O)NC4CCCCC4)cc3)c2=O)CC1` [1-118], the figures for the IC50 in experiment [1], in experiment [2] and in experiment [3] were 398 nM, 501 nM and 79.4 nM, respectively.
The like results for `C/C(=C\c1ccccc1)CN1CCC(Nc2nccn(CCCNC(=O)Nc3ccccc3)c2=O)CC1` [1-119] were, in that order, 158 nM, 158 nM and 5.01 nM.
With `C/C(=C\c1ccccc1)CN1CCC(Nc2nccn(-c3ccc(NC(=O)Nc4ccc(F)cc4)cc3)c2=O)CC1` [1-120], the IC50 in experiment [1] is 200 nM; in experiment [2], 126 nM; in experiment [3] it was 25.1 nM.
The corresponding values for `C/C(=C\c1ccccc1)CN1CCC(Nc2nccn(CCCN(C)C(=O)Nc3ccccc3)c2=O)CC1` [1-121] are 158 nM, 794 nM and 6.31 nM.
The corresponding values for `C/C(=C\c1ccccc1)CN1CCC(Nc2nccn(CCCN(C(=O)Nc3ccccc3)c3ccccc3)c2=O)CC1` [1-122] are 100 nM, 200 nM and 7.94 nM.
The corresponding values for `C/C(=C\c1ccccc1)CN1CCC(Nc2nccn(CCCN(Cc3ccccc3)C(=O)Nc3ccccc3)c2=O)CC1` [1-123] are 158 nM, 631 nM and 12.6 nM.
`C/C(=C\c1ccccc1)CN1CCC(Nc2nccn(Cc3ccc(CNC(=O)NCc4ccccc4)cc3)c2=O)CC1` [1-124]: the IC50 in experiment [1] is 251 nM; in experiment [2], 501 nM; in experiment [3], 63.1 nM.
Take `C/C(=C\c1ccccc1)CN1CCC(Nc2nccn(Cc3ccc(CNC(=O)NCCc4ccccc4)cc3)c2=O)CC1` [1-125]: the values for the IC50 in experiment [1], in experiment [2] and in experiment [3] were 158 nM, 501 nM and 63.1 nM, respectively.
The like results for `COc1cc(CNC(=O)NCc2ccc(Cn3ccnc(NC4CCN(C/C(C)=C/c5ccccc5)CC4)c3=O)cc2)cc(OC)c1` [1-126] were, in that order, 251 nM, 501 nM and 39.8 nM.
With `CCOC(=O)N1CCC(NCc2cccc(-n3ccnc(NC4CCN(C/C(C)=C/c5ccccc5)CC4)c3=O)c2)CC1` [1-127], in experiment [1], the “h-α2A pIC50” value turned out to be 7.3. Further, in experiment [2], the “h-5HTT pIC50” value was determined as 5.5. For the same molecule, the “h-α2C pIC50” value in experiment [3] is listed as 8.0.
Consider `CCOC(=O)N1CCC(NCc2ccc(-n3ccnc(NC4CCN(C/C(C)=C/c5ccccc5)CC4)c3=O)cc2)CC1` [1-128], for which the “h-α2A pIC50” value in experiment [1] amounted to 7.0. The “h-5HTT pIC50” value in experiment [2] was determined as 5.9. Besides, the “h-α2C pIC50” value in experiment [3] is reported as 7.9.
Consider `C/C(=C\c1ccccc1)CN1CCC(Nc2nccn(-c3ccc(C(=O)NC4CCN(Cc5ccccc5)CC4)cc3)c2=O)CC1` [1-129], for which the IC50 in experiment [1] is 63.1 nM; in experiment [2], 501 nM; in experiment [3], 25.1 nM.
`C/C(=C\c1ccccc1)CN1CCC(Nc2nccn(-c3cccc(CNCCN4CCCC4)c3)c2=O)CC1` [1-130]: in experiment [1], the “h-α2A pIC50” value was 8.2. Also, the “h-5HTT pIC50” value in experiment [2] was 6.7. Further, the “h-α2C pIC50” value in experiment [3] was 8.8.
On to `C/C(=C\c1ccccc1)CN1CCC(Nc2nccn(-c3ccc(CNCCN4CCCC4)cc3)c2=O)CC1` [1-131], for which the IC50 in experiment [1] was 25.1 nM; in experiment [2], 158 nM; in experiment [3], 3.16 nM.
The corresponding values for `C/C(=C\c1ccccc1)CN1CCC(Nc2nccn(CC(=O)NCCCN3CCCC3=O)c2=O)CC1` [1-132] are 316 nM, 2510 nM and 12.6 nM.
Regarding `C/C(=C\c1ccccc1)CN1CCC(Nc2nccn(-c3cccc(CNCCCN4CCCC4=O)c3)c2=O)CC1` [1-133], the “h-α2A pIC50” value in experiment [1] came to 7.5. The “h-5HTT pIC50” value in experiment [2] came out at 5.6. The “h-α2C pIC50” value in experiment [3] is reported as 8.7.
For `C/C(=C\c1ccccc1)CN1CCC(Nc2nccn(CC(=O)N(CCN3CCCC3)CC3CCCCC3)c2=O)CC1` [1-134], the IC50 is 12.6 nM in experiment [1], 501 nM in experiment [2] and 1.58 nM in experiment [3].
Take `C/C(=C\c1ccccc1)CN1CCC(Nc2nccn(CC(=O)N(CCN3CCCC3)Cc3ccccc3)c2=O)CC1` [1-135]: the IC50 was 12.6 nM in experiment [1], 794 nM in experiment [2] and 0.794 nM in experiment [3].
For the molecule `C/C(=C\c1ccccc1)CN1CCC(Nc2nccn(CC(=O)N(CCN3CCCC3)Cc3ccc(F)cc3)c2=O)CC1` [1-136], the IC50 in experiment [1] is 10 nM; in experiment [2], 631 nM; in experiment [3] it was 0.316 nM.
As for `C/C(=C\c1ccccc1)CN1CCC(Nc2nccn(CC(=O)N(CCCN3CCCC3)Cc3ccc(F)cc3)c2=O)CC1` [1-137], the IC50 was 12.6 nM in experiment [1], 1000 nM in experiment [2] and 0.794 nM in experiment [3].
The corresponding values for `C/C(=C\c1ccccc1)CN1CCC(Nc2nccn(CC(=O)N(CCN3CCCC3C)Cc3ccc(F)cc3)c2=O)CC1` (stereo not drawn) [1-138] are 7.94 nM, 1260 nM and 0.794 nM.
